What all share (type): biochemical
The target in one test is Mammalian Cathepsin S (Homo sapiens, UniProt P25774). The test can be described thus: Ki competitive inhibition, mammalian cathepsin S. Conditions: Table 1, first line of each CAP-P2 block; read-out: Ki competitive inhibition measurements vs Mammalian Cathepsin S. Here is the method: Cathepsin S (Mammalian, murine and rat)
Assays were performed in 100 mM sodium phosphate, 100 mM NaCl, pH 6.5 (buffer) in white 384 well plates (Coming Costar). Eight inhibitors were assayed per plate.
Inhibitor dilutions were performed on a 96 well V-bottomed polypropylene plate (Corning Costar). 100 μl of buffer was placed in wells 2-5 and 7-12 of rows A, B, C and D. Sufficient of each inhibitor at 10 mM in DMSO was placed into wells A1-D1 and A6-D6 to give the desired final concentration when the volume in the well was made up to 200 μl with buffer. Column 1 was made up to 200 μl with buffer, mixed by aspirating and dispensing 100 μl in the well, and 100 μl transferred to column 2. The pipette tips were changed and the mixing and transferral repeated to column 5. This process was repeated for columns 6-10.
Substrate dilutions were performed on a 96 deep well polypropylene plate (Beckman Coulter). 280 μl of buffer was placed in wells B-H of columns 1 and 2.70 μl of 10 mM boc-Val-Leu-Lys-AMC was placed in A1 and A2. 2×250 μl of buffer was added to wells A1 and A2, mixed by aspirating and dispensing 280 μl in the well, and 280 μl transferred to row B. The pipette tips were changed and the process repeated down the plate to row H.
Column 1 of the substrate dilution plate was distributed at 10 μl per well into alternate rows beginning at row A. Column 2 was distributed to alternate rows beginning at row B. Row A of the inhibitor dilution plate was distributed at 10 μl per well to alternate rows and columns starting at A1. Row B was distributed to alternate rows and columns starting at A2. Row C was distributed to alternate rows and columns starting at B1 and row D was distributed to alternate rows and columns starting at B2. The assay was started by the addition of 30 μl per well of 20 nM cathepsin S in buffer containing 10 mM 2-mercaptoethanol.
(§1) Data were saved as text files and imported into Excel. The initial rates were determined by linear regression and then fitted to the competitive inhibition equation using SigmaPlot.

A further test has as its target Mammalian Cathepsin L (Homo sapiens, UniProt P07711). The test can be described thus: Ki competitive inhibition, cathepsin L. Conditions: Table 1, second line of each CAP-P2 block; read-out: Ki competitive inhibition measurements vs Mammalian Cathepsin L. Here is the method: as §1
(§2) Assays were performed essentially as above. For cathepsin L, the buffer used was 100 mM sodium acetate, 1 mM EDTA, pH 5.5 and the substrate was D-Val-Leu-Lys-AMC with a highest concentration of 100 μM. For cathepsin K, the buffer used was 100 mM MES/Tris, 1 mM EDTA, pH 7.0 and the substrate was D-Ala-Leu-Lys-AMC with a highest concentration of 250 μM.

A further test addresses T1, Mammalian Cathepsin K (Homo sapiens, UniProt P43235).
T1 sequence (P43235 115-329): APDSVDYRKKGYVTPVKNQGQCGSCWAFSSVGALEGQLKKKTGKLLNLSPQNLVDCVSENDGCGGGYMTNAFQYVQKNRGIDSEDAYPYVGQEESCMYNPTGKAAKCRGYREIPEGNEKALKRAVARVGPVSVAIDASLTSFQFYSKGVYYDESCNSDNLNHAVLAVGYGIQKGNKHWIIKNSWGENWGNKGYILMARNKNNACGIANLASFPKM
Put plainly: Ki competitive inhibition, cathepsin K. The conditions noted are these: Table 1, third line of each CAP-P2 block; read-out: Ki competitive inhibition measurements vs Mammalian Cathepsin K. Here is the method:
as §2
Convenient assays for cathepsin K arere carried out using human recombinant enzyme. Standard assay conditions for the determination of kinetic constants used a fluorogenic peptide substrate, typically H-D-Ala-Leu-Lys-AMC, and were determined in either 100 mM Mes/Tris, pH 7.0 containing 1 mM EDTA and 10 mM 2-mercaptoethanol or 100 mM Na acetate, pH 5.5 containing 5 mM EDTA and 20 mM cysteine. The enzyme concentration used was 5 nM. The stock substrate solution was prepared at 10 mM in DMSO. Screens were carried out at a fixed substrate concentration of 60 μM and detailed kinetic studies with doubling dilutions of substrate from 250 μM. The total DMSO concentration in the assay was kept below 3%. All assays were conducted at ambient temperature. Product fluorescence (excitation at 390 nm, emission at 460 nm) was monitored with a Labsystems Fluoroskan Ascent fluorescent plate reader. Product progress curves were generated over 15 minutes following generation of AMC product.
Potential inhibitors are screened using the above assay with variable concentrations of test compound. Reactions were initiated by addition of enzyme to buffered solutions of substrate and inhibitor. Ki values were calculated according to equation 1 [formula] where ν0 is the velocity of the reaction, V is the maximal velocity, S is the concentration of substrate with Michaelis constant of KM, and I is the concentration of inhibitor. Determination of Falcipain 2 Proteolytic Catalytic Activity

The record followed here is patent US20050020588A1, “Cysteine protease inhibitors” (priority 1999, published 2005).

Where only a bound is given, the exact number is not on record here.

Mammalian Cathepsin S, sequence (P25774 115-331): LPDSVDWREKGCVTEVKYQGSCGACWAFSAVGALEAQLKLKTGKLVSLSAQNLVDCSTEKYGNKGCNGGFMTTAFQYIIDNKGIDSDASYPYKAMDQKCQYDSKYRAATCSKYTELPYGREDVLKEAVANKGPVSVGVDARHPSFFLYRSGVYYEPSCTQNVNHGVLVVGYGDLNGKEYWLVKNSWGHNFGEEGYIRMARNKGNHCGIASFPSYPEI
Mammalian Cathepsin L, sequence (P07711 114-333): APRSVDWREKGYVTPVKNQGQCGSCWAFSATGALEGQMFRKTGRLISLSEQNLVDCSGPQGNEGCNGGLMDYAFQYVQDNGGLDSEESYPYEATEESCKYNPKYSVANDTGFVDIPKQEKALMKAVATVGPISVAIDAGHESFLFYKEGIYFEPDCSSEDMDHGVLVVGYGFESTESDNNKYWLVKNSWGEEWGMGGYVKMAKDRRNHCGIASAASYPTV

On to `CC(C)CC[C@H](NC(=O)c1ccc(O)cc1)C(=O)N[C@H]1C(=O)CO[C@H]1C` [CAP1-L-hLeu/drawing 70], for which the figures for the Ki at Mammalian Cathepsin S, on Mammalian Cathepsin L and on Mammalian Cathepsin K were 0.3 µM, 29.8 µM and 24.1 µM, respectively.

Take `CC(C)C[C@H](NC(=O)c1ccc(O)cc1)C(=O)N[C@@H]1COCC1=O` [CAP1-L-Leu/drawing 73]: the figures for the Ki on Mammalian Cathepsin S, at Mammalian Cathepsin L and at Mammalian Cathepsin K were 0.27 µM, 0.39 µM and 0.07 µM, respectively.

For the compound `Cc1cc(C(=O)N[C@@H](Cc2ccc(O)cc2)C(=O)N[C@H]2C(=O)CO[C@H]2C)oc1C` [CAP6-L-Tyr/drawing 70], the results for the Ki at Mammalian Cathepsin S, on Mammalian Cathepsin L and at Mammalian Cathepsin K were 0.24 µM, 0.67 µM and over 100 µM, respectively.

As to `CC(C)C[C@H](NC(=O)c1ccc(N(C)C)cc1)C(=O)N[C@@H]1COCC1=O` [CAP7-L-Leu/drawing 73], the Ki (as a rule, a dissociation constant, usually derived from enzyme kinetics or from competition with a known ligand) at Mammalian Cathepsin S was determined as 3.9 µM; on Mammalian Cathepsin L it was 1.1 µM; on Mammalian Cathepsin K it was 0.023 µM.

As to `CCn1nc(C)cc1C(=O)NC(Cc1ccc(O)cc1)C(=O)NC1COCC1=O` [CAP10-L-Tyr/drawing 72], the Ki at Mammalian Cathepsin S is 3.7 µM; at Mammalian Cathepsin L it was 0.1 µM; on Mammalian Cathepsin K, over 100 µM.

Regarding `Cc1cc(C(=O)N[C@@H](CC(C)C)C(=O)N[C@@H]2COCC2=O)oc1C` [CAP6-L-Leu/drawing 73], the values for the Ki at Mammalian Cathepsin S, at Mammalian Cathepsin L and on Mammalian Cathepsin K were 0.48 µM, 0.19 µM and 0.33 µM, respectively.

Consider `C[C@H]1OCC(=O)[C@H]1NC(=O)[C@H](CC(C)(C)C)NC(=O)N1CCOCC1` [CAP9-L-tBu-Ala/drawing 69], for which the Ki at Mammalian Cathepsin S was found to be 0.58 µM; at Mammalian Cathepsin L it was 30.4 µM; on Mammalian Cathepsin K, 4.2 µM.

Take `C[C@H]1OCC(=O)[C@H]1NC(=O)[C@H](Cc1ccc(O)cc1)NC(=O)c1cccs1` [CAP5-L-Tyr/drawing 69]: the Ki was 1.6 µM at Mammalian Cathepsin S, 0.5 µM on Mammalian Cathepsin L and over 100 µM on Mammalian Cathepsin K.

With `CCCC[C@H](NC(=O)c1ccccc1)C(=O)N[C@H]1COCC1=O` [CAP3-L-Nle/drawing 72], the Ki at Mammalian Cathepsin S was 0.76 µM; at Mammalian Cathepsin L it was 2.8 µM; on Mammalian Cathepsin K, 5.8 µM.

Turning to `C[C@H]1OCC(=O)[C@H]1NC(=O)[C@H](CC(C)(C)C)NC(=O)c1cccs1` [CAP5-L-tBu-Ala/drawing 69], the Ki is 0.47 µM on Mammalian Cathepsin S, 24.6 µM on Mammalian Cathepsin L and 0.65 µM on Mammalian Cathepsin K.

On to `CC(C)CC[C@H](NC(=O)N1CCOCC1)C(=O)N[C@H]1C(=O)CO[C@H]1C` [CAP9-L-hLeu/drawing 70], for which the Ki at Mammalian Cathepsin S was 0.7 µM; on Mammalian Cathepsin L, over 100 µM; on Mammalian Cathepsin K, over 100 µM.

In the case of `CC(C)(C)CC(NC(=O)c1ccoc1)C(=O)NC1COCC1=O` [CAP8-L-tBu-Ala/drawing 72], the Ki is 0.21 µM at Mammalian Cathepsin S, 36.4 µM at Mammalian Cathepsin L and 0.85 µM on Mammalian Cathepsin K.

As to `CC(C)C[C@H](NC(=O)N1CCOCC1)C(=O)N[C@H]1C(=O)CO[C@H]1C` [CAP9-L-Leu/drawing 70], the Ki is 0.8 µM at Mammalian Cathepsin S, 7.9 µM at Mammalian Cathepsin L and 4.8 µM on Mammalian Cathepsin K.

As to `Cc1cc(C(=O)N[C@@H](CC(C)C)C(=O)N[C@@H]2C(=O)CO[C@H]2C)oc1C` [CAP6-L-Leu/drawing 71], the Ki at Mammalian Cathepsin S worked out at 0.68 µM; at Mammalian Cathepsin L, 0.67 µM; on Mammalian Cathepsin K it was 2.75 µM.

Consider `CCCC[C@H](NC(=O)c1ccc(N(C)C)cc1)C(=O)N[C@@H]1C(=O)CO[C@H]1C` [CAP7-L-Nle/drawing 71], for which the inhibition constant Ki turned out to be 6.2 µM at Mammalian Cathepsin S, 49.9 µM at Mammalian Cathepsin L and 1.3 µM at Mammalian Cathepsin K.

In the case of `O=C(N[C@@H](Cc1ccc(O)cc1)C(=O)N[C@H]1COCC1=O)c1ccccc1` [CAP3-L-Tyr/drawing 72], the figures for the Ki on Mammalian Cathepsin S, at Mammalian Cathepsin L and at Mammalian Cathepsin K were 1.6 µM, 0.25 µM and over 100 µM, respectively.

Consider `C[C@@H]1OCC(=O)[C@@H]1NC(=O)[C@H](Cc1ccc(O)cc1)NC(=O)c1ccc(O)cc1` [CAP1-L-Tyr/drawing 70], for which the Ki on Mammalian Cathepsin S is 1 µM; at Mammalian Cathepsin L it was 1.8 µM; on Mammalian Cathepsin K it was over 100 µM.

Consider `CCn1nc(C)cc1C(=O)N[C@@H](Cc1ccc(O)cc1)C(=O)N[C@H]1C(=O)CO[C@H]1C` [CAP10-L-Tyr/drawing 70], for which the Ki was 0.34 µM at Mammalian Cathepsin S, 0.46 µM on Mammalian Cathepsin L and over 100 µM on Mammalian Cathepsin K.

As for `CCCC[C@H](NC(=O)c1ccoc1)C(=O)N[C@@H]1C(=O)CO[C@@H]1C` [CAP8-L-Nle/drawing 69], the figures for the Ki at Mammalian Cathepsin S, at Mammalian Cathepsin L and on Mammalian Cathepsin K were 1.5 µM, 54.4 µM and 13.2 µM, respectively.

Turning to `C[C@H]1OCC(=O)[C@H]1NC(=O)[C@H](CC(C)(C)C)NC(=O)c1ccc(N(C)C)cc1` [CAP7-L-tBu-Ala/drawing 69], the values for the Ki on Mammalian Cathepsin S, at Mammalian Cathepsin L and on Mammalian Cathepsin K were 2.7 µM, 13.1 µM and 0.04 µM, respectively.

Consider `CCCC[C@H](NC(=O)c1ccc(O)cc1)C(=O)N[C@H]1COCC1=O` [CAP1-L-Nle/drawing 72], for which the Ki on Mammalian Cathepsin S is 0.56 µM; at Mammalian Cathepsin L, 3.3 µM; on Mammalian Cathepsin K, 1.4 µM.

Take `CC(C)C[C@H](NC(=O)c1ccc(N(C)C)cc1)C(=O)N[C@H]1COCC1=O` [CAP7-L-Leu/drawing 72]: the Ki at Mammalian Cathepsin S was determined as 3.1 µM; at Mammalian Cathepsin L it was 0.69 µM; at Mammalian Cathepsin K, 0.018 µM.

With `CC(C)CC[C@H](NC(=O)c1ccoc1)C(=O)N[C@@H]1COCC1=O` [CAP8-L-hLeu/drawing 73], the figures for the Ki at Mammalian Cathepsin S, on Mammalian Cathepsin L and on Mammalian Cathepsin K were 0.44 µM, 61.2 µM and 8.7 µM, respectively.

Turning to `CC(C)C[C@H](NC(=O)c1ccc(N(C)C)cc1)C(=O)N[C@H]1C(=O)CO[C@H]1C` [CAP7-L-Leu/drawing 70], the results for the Ki on Mammalian Cathepsin S, at Mammalian Cathepsin L and at Mammalian Cathepsin K were 4.2 µM, 6.8 µM and 0.17 µM, respectively.

As for `Cc1cc(C(=O)N[C@@H](Cc2ccc(O)cc2)C(=O)N[C@@H]2C(=O)CO[C@@H]2C)oc1C` [CAP6-L-Tyr/drawing 69], the inhibitory constant (Ki) at Mammalian Cathepsin S was 2 µM; on Mammalian Cathepsin L it was 0.055 µM; on Mammalian Cathepsin K, over 100 µM.

For `CC(C)C[C@H](NC(=O)c1ccc(O)cc1)C(=O)N[C@H]1C(=O)CO[C@H]1C` [CAP1-L-Leu/drawing 70], the Ki at Mammalian Cathepsin S turned out to be 0.23 µM; at Mammalian Cathepsin L, 2.7 µM; on Mammalian Cathepsin K, 0.41 µM.

In the case of `C[C@@H]1OCC(=O)[C@@H]1NC(=O)[C@H](CC(C)(C)C)NC(=O)c1ccoc1` [CAP8-L-tBu-Ala/drawing 70], the figures for the Ki at Mammalian Cathepsin S, on Mammalian Cathepsin L and at Mammalian Cathepsin K were 0.2 µM, over 100 µM and 19.9 µM, respectively.

`C[C@H]1OCC(=O)[C@H]1NC(=O)[C@H](Cc1ccc(O)cc1)NC(=O)c1ccccc1` [CAP3-L-Tyr/drawing 69]: the inhibitory constant (Ki) on Mammalian Cathepsin S is 1.1 µM; on Mammalian Cathepsin L it was 0.17 µM; at Mammalian Cathepsin K, over 100 µM.

As for `CC(C)CC[C@H](NC(=O)N1CCOCC1)C(=O)N[C@@H]1C(=O)CO[C@@H]1C` [CAP9-L-hLeu/drawing 69], the Ki on Mammalian Cathepsin S worked out at 0.78 µM; at Mammalian Cathepsin L it was 48.7 µM; on Mammalian Cathepsin K, 34.3 µM.

With `CCn1nc(C)cc1C(=O)N[C@@H](CC(C)C)C(=O)N[C@@H]1C(=O)CO[C@@H]1C` [CAP10-L-Leu/drawing 69], the results for the Ki on Mammalian Cathepsin S, on Mammalian Cathepsin L and on Mammalian Cathepsin K were 1.3 µM, 0.71 µM and 3 µM, respectively.
